US4400517A, “Phosphoric esters derived from 1,2,4-triazole having an insecticidal, nematocidal and acaricidal action, and their preparation” (priority 1976, dated 1983)

Assays:
Assay type in all cases: in vivo
[1] = system: Tetranychus urticae; experiment: Biological activity on adults of Tetranychus urticae (Acari); details: 24 h, Table 5, read-out: Activity (mortality class), Tetranychus U. (adults); for mortality at 0.001 %: 0.01%o; for mortality at 0.1 %: 1%o
Method: (5) Biological activity on adults of Tetranychus urticae (Acari)
Discs of bean leaves were infested with adult acari and then sprinkled with an aqueous dispersion of the products under examination (see Tables 4 and 5).
The mortality percentage was determined after 24 hours from treatment (untreated leaf discs, mortality=0).

[2] = system: Leptinotarsa decemlineata; experiment: Biological activity on Leptinotarsa decemlineata (Coleoptera); details: 48 h, Table 5, read-out: Activity (mortality class), Leptinotarsa D.; for mortality at 0.005 %: 0.05%o; for mortality at 0.1 %: 1%o
Method: (3) Biological activity on Leptinotarsa decemlineata (Coleoptera)
Small potato plants grown in pots were infested with 4-day old larvae, and were then sprinkled with an aqueous dispersion of the products under examination (see Tables 4 and 5).
The mortality percentage (untreated small plants=0) was determined after 48 hours from treatment.

[3] = system: Blatta orientalis; experiment: Biological activity on Blatta orientalis (Ortoptera); details: Blatta orientalis, 48 h, Table 5, read-out: Activity (mortality class), Blatta O.; for mortality at 1 g/m2: 1 g/m^2; for mortality at 0.01 g/m2: 0,01 g/m^2
Method: (10) Biological activity on Blatta orientalis (Ortoptera)
The bottom and walls of glass crystallizers were treated uniformly with an acetonic solution of the products under examination (see Tables 4 and 5). After evaporation of the solvent, into each crystallizer were introduced ten 80-100 days old neanides. The crystallizers were then closed with a metal net cover. After 24 hours from the start of the treatment, the insects were transferred to similar untreated crystallizers, and there were appropriately nourished in conventional manner.
The percentage of mortality (untreated insects=0) was determined after 48 hours from the start of the treatment.

[4] = system: Culex pipiens; experiment: Biological activity on Culex pipiens larvae (Diptera); details: 24 h, Table 5, read-out: Activity (mortality class), Culex P. (larvae)
Method: (4) Biological activity on Culex pipiens (Diptera)
Into glasses containing an aqueous dispersion of the products under examination (see Tables 4 and 5) there were introduced mosquito larvae of third and fourth age.
The mortality percentage of the larvae (glasses containing pure water=0) was determined after 24 hours from treatment.

[5] = system: Pieris brassicae; experiment: Biological activity on Pieris brassicae (Lepidoptera); details: 48 h, Table 5, read-out: Activity (mortality class), Pieris B.; for mortality at 0.001 %: 0.01%o; for mortality at 0.1 %: 1%o
Method: (2) Biological activity on Pieris brassicae (Lepidotera)
Cut-off cauliflower leaves were sprinkled with an aqueous dispersion of the products under examination (see TABLE 5).
After drying, the leaves were infested with 5-day old larvae. The percentage of mortality of the larvae (untreated leaves=0) was determined after 48 hours from treatment.

[6] = system: Spodoptera littoralis; experiment: Biological activity on Spodoptera littoralis (Lepidoptera); details: 48 h, Table 5, read-out: Activity (mortality class), Spodoptera L.; for mortality at 0.1 %: 1%o; for mortality at 0.005 %: 0.05%o
Method: (7) Biological activity on Spodoptera littoralis (Lepidoptera)
Cut tobacco leaves were sprinkled with an aqueous dispersion of the products under examination (see Tables 4 and 5).
After drying, the leaves were infested with 5-day old larvae.
The percentage of mortality of the larvae was determined after 48 hours from treatment (untreated leaves, mortality=0).

Structure (SMILES)	mortality at 0.001 % [1]	mortality at 0.1 % [1]	mortality at 0.005 % [2]	mortality at 0.1 % [2]	mortality at 1 g/m2 [3]	mortality at 2 ppm [4]	mortality at 0.001 % [5]	mortality at 0.1 % [5]	mortality at 0.1 % [6]	mortality at 0.01 g/m2 [3]	mortality at 0.02 ppm [4]	mortality at 0.005 % [6]
CCOP(=S)(OCC)Oc1nc(C2=C(Cl)CCCC2)nn1C [M 5338/89]	70 to 99%	100%	10 to 69%	100%	100%	100%	10 to 69%	100%	100%	–	–	–
CCOP(=S)(OCC)Oc1nc(C=C(Cl)Cl)nn1CC [M 5349/40]	100%	–	100%	–	–	–	100%	–	–	70 to 99%	100%	100%
CCOP(=S)(OCC)Oc1nc(C(=O)c2ccccc2)nn1-c1ccccc1 [M 7480]	–	100%	–	–	–	10 to 69%	–	–	–	–	–	–
CCOP(=S)(OCC)Oc1nc(C(C)=O)nn1-c1ccccc1 [M 7650]	–	100%	–	0 to 9%	–	100%	–	100%	70 to 99%	–	–	–
CCOP(=S)(OCC)Oc1nc(C(C)O)nn1-c1ccccc1 (stereo not drawn) [M 7853]	–	100%	–	100%	10 to 69%	100%	–	100%	100%	–	–	–
CCOP(=S)(OCC)Oc1nc(C(C)OC(C)=O)nn1-c1ccccc1 (stereo not drawn) [M 8084]	10 to 69%	100%	–	100%	–	100%	–	100%	100%	–	–	–
CCOP(=S)(OCC)Oc1nc(C(C)OC(=O)C=C(Cl)Cl)nn1-c1ccccc1 (stereo not drawn) [M 8086]	–	100%	–	100%	–	100%	–	100%	100%	–	–	–
CCOP(=S)(OCC)Oc1nc(C(Br)=C(Br)Br)nn1C [M 8089, O,O-diethyl-O-(1-methyl-3-tribromovinyl-5-triazolyl)-thiophosphate]	–	100%	–	100%	100%	100%	–	100%	100%	–	–	–
CCOP(=S)(OCC)Oc1nc(C(C)N(C)C)nn1-c1ccccc1 (stereo not drawn) [M 8171]	–	70 to 99%	–	–	–	100%	–	–	–	–	–	–
CCOC(=O)c1nc(OP(=S)(OCC)OCC)n(-c2ccccc2)n1 [M 8257]	–	70 to 99%	–	10 to 69%	10 to 69%	70 to 99%	–	70 to 99%	–	–	–	–
C=Cc1nc(OP(=S)(OCC)OCC)n(-c2ccccc2)n1 [M 8261]	–	100%	–	100%	100%	100%	–	100%	100%	–	–	–
CCOP(=S)(OCC)Oc1nc(C=C(Cl)Cl)nn1Cc1ccccc1 [M 8827]	10 to 69%	100%	–	100%	–	100%	–	–	–	–	10 to 69%	–
C#CCn1nc(C=C(Cl)Cl)nc1OP(=S)(OCC)OCC [M 8828]	70 to 99%	100%	–	100%	100%	100%	–	100%	–	–	10 to 69%	–
CCOP(=S)(Oc1nc(C=C(Cl)Cl)nn1C)c1ccccc1 (stereo not drawn) [M 9579]	–	100%	–	–	–	100%	–	–	–	–	–	–
CCOP(=S)(Oc1nc(C=C(Cl)Cl)nn1C)N(C)C (stereo not drawn) [M 9643]	–	100%	–	–	–	–	–	–	100%	–	–	–
CCOP(=S)(OC)Oc1nc(C=C(Cl)Cl)nn1C (stereo not drawn) [M 9750]	100%	100%	10 to 69%	100%	100%	100%	–	–	100%	100%	100%	100%
